Experimental data from PMC7144330, “2-Thiopyrimidine/chalcone hybrids: design, synthesis, ADMET prediction, and anticancer evaluation as STAT3/STAT5a inhibitors” (Journal of Enzyme Inhibition and Medicinal Chemistry, 2020).
Where two headings read alike, the source gives them in different places.

Experiments:
K-562 = experiment: MTT cytotoxic assay, leukaemia K-562 cell line; format: cell-based
Protocol: (§1) To investigate cytotoxic activity of the final target compounds 9a–r, MTT assay was performed. Three different cell lines were used, leukaemia (K-562), breast (MCF-7) and colon (HT-29) cell lines. Cisplatin and erlotinib were the reference drugs used in this study.
(§2) All target compounds 9a–r were screened against three different cancer cell lines, leukaemia (K-562), breast (MCF-7), and colon (HT-29). MTT assay was used. Both cisplatin and erlotinib were used as the reference drugs. Cytotoxicity results are recorded in Table 1.

MCF-7 = experiment: MTT cytotoxic assay, breast MCF-7 cell line; format: cell-based, human
Protocol: as §1, §2

HT-29 = experiment: MTT cytotoxic assay, colon HT-29 cell line; format: cell-based; conditions: read-out: (IC50 μM)±SD HT-29
Protocol: as §1, §2

STAT3 = molecular target: T1, STAT3 (Homo sapiens, UniProt P40763); experiment: TransAM STAT3 activation assay on nuclear extracts of treated cells; format: cell-based; conditions: 24 h, read-out: Inhibition IC50 (µM) STAT3
T1 construct: endogenous in cells; host or cells: K-562 and MCF-7 cells (nuclear extracts)
T1 sequence (P40763 whole entry): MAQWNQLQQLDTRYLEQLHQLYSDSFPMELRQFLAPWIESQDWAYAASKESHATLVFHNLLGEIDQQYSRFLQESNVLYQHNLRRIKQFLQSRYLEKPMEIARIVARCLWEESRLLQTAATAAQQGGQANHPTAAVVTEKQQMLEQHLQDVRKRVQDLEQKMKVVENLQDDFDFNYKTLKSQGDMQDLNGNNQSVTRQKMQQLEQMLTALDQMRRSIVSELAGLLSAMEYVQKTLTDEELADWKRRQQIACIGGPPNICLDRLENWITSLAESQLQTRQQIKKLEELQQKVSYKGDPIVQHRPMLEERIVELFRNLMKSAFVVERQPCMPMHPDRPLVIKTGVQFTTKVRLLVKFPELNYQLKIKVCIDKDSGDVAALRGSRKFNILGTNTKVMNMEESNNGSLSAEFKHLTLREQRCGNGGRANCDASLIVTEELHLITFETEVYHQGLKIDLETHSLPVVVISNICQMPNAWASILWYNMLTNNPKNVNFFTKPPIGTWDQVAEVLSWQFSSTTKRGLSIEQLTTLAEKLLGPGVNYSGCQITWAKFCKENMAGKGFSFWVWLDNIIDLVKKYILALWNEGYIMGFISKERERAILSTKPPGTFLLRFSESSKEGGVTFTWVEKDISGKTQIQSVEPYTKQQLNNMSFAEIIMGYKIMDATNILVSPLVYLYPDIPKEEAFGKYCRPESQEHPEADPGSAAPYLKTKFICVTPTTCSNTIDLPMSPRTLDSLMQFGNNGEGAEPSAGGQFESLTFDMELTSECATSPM
Protocol: (§3) Both K-562 and MCF-7 cell lines were seeded overnight in plates, then 10 µM of test compounds (9a and 9r for MCF-7 cells; 9d, 9f, and 9n for K-562 cells) or reference drug pacritinib was added for 24 h. A nuclear extract kit was used to extract nuclear fractions from treated cells using the manufacture’s procedure. STAT3 and STAT5a activations were analysed using the collected nuclear extracts (20 µg) through TransAM STAT3 and STAT5a activation assay guided by the manufacture’s protocol. The obtained results were expressed in the form of mean ± SD. Each experiment was done in triplicate.
(§4) Pacritinib, an inhibitor for both STAT3 and STAT5a[49] was used in this study as a reference drug.

STAT5a = molecular target: T2, STAT5a (Homo sapiens, UniProt P42229); experiment: TransAM STAT5a activation assay on nuclear extracts of treated cells; format: cell-based; conditions: 24 h, read-out: Inhibition IC50 (µM) STAT5a
T2 construct: endogenous in cells; host or cells: K-562 and MCF-7 cells (nuclear extracts)
T2 sequence (P42229 1-794): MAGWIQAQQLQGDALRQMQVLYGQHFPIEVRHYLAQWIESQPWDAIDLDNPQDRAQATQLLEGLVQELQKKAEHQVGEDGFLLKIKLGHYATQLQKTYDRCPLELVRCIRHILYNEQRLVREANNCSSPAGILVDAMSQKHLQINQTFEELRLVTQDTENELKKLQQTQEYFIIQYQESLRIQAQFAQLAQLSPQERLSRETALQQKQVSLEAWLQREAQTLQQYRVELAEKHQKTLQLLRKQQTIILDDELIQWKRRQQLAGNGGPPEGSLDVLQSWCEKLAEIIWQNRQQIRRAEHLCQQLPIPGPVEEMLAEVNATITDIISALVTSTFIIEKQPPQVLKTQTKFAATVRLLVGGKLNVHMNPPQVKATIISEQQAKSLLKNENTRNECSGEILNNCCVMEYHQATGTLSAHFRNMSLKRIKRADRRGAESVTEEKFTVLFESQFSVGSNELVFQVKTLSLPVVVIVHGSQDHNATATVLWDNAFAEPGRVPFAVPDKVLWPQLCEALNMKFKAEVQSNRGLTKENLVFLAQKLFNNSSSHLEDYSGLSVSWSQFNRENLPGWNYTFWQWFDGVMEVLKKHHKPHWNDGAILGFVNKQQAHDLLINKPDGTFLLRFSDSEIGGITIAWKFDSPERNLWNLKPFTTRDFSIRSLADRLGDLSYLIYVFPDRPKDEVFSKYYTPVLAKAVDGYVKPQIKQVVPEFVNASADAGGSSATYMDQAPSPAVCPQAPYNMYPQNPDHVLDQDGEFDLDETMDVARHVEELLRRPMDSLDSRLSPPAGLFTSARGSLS
Protocol: as §3, §4

in vitro = conditions: human
[1] = Homo sapiens, K562, read-out: (IC50 μM)±SD K-562
[2] = Homo sapiens, MCF7, read-out: (IC50 μM)±SD MCF-7

SMILES | IC50 (K-562; [1]) [µM] | IC50 (MCF-7; [2]) [µM] | IC50 (HT-29; Homo sapiens) [µM] | melting point [°C] | other results
COc1ccc(/C=C/C(=O)c2ccc(NC(=O)CSc3nc(-c4ccc(OC)cc4)cc(-c4ccc([N+](=O)[O-])cc4)n3)cc2)cc1 [Compound 9d, (ZE)-2-[4-(4-Methoxyphenyl)-6-(4-nitrophenyl)pyrimidin-2-ylthio]-N-{4-[3-(4-methoxyphenyl)acryloyl]phenyl}acetamide] | 0.77 ± 0.03 | 14.2 ± 0.74 | 25.9 ± 1.67 | 183 to 185 | IC50 (STAT3; K562 cells): 160 ± 4.59 µM; IC50 (STAT5a; K562 cells): 116 ± 4.13 µM; IC50 (in vitro): 29.2 to 40.1 µM
COc1ccc(-c2cc(-c3ccc(OCCCl)cc3)nc(SCC(=O)Nc3ccc(C(=O)/C=C/c4ccc(OC)c(OC)c4)cc3)n2)cc1 [Compound 9h, (ZE)-2-{4-[4-(2-Chloroethoxy)phenyl]-6-(4-methoxyphenyl)pyrimidin-2-ylthio}-N-{4-[3-(3,4-dimethoxyphenyl)acryloyl]phenyl}acetamide] | 7.07 ± 0.31 | 7.7 ± 0.32 | 18.8 ± 0.88 | 135 to 137 | –
C1=C/COCc2cc(ccc2OCCN2CCCC2)Nc2nccc(n2)-c2cccc(c2)COC/1 [Pacritinib, reference compound] | – | – | – | – | IC50 (STAT3; K562 cells): 65.5 ± 2.55 µM; IC50 (STAT3; MCF7 cells): 79.5 ± 2.17 µM; IC50 (STAT5a; K562 cells): 69.8 ± 1.82 µM; IC50 (STAT5a; MCF7 cells): 54.4 ± 1.09 µM
COc1ccc(-c2cc(-c3ccc(C)cc3)nc(SCC(=O)Nc3ccc(C(=O)/C=C/c4ccc(OC)c(OC)c4)cc3)n2)cc1 [Compound 9b, (ZE)-N-{4-[3-(3,4-Dimethoxyphenyl)acryloyl]phenyl}-2-[4-(4-methoxyphenyl)-6-p-tolylpyrimidin-2-ylthio]acetamide] | 3.62 ± 0.08 | 22.4 ± 1.57 | 16.4 ± 0.76 | 165 to 167 | –
COc1ccc(/C=C/C(=O)c2ccc(NC(=O)CSc3nc(-c4ccc(Cl)cc4)cc(-c4ccc(OCCCl)cc4)n3)cc2)cc1 [Compound 9p] | 1.74 ± 0.04 | 11.6 ± 0.49 | 11.6 ± 0.63 | 136 to 138 | –
COc1ccc(-c2cc(-c3ccc(C)cc3)nc(SCC(=O)Nc3ccc(C(=O)/C=C/c4cc(OC)c(OC)c(OC)c4)cc3)n2)cc1 [Compound 9c, (ZE)-2-[4-(4-Methoxyphenyl)-6-p-tolylpyrimidin-2-ylthio]-N-{4-[3-(3,4,5-trimethoxyphenyl)acryloyl]phenyl}acetamide] | 11.42 ± 0.04 | 4.25 ± 0.13 | 8.7 ± 0.28 | 195 to 197 | –
N.N.[Cl][Pt][Cl] [Cisplatin, reference compound] | – | – | – | – | IC50 (K-562; read-out: (IC50 μM)±SD K-562): 2.31 ± 0.09 µM; IC50 (MCF-7; read-out: (IC50 μM)±SD MCF-7): 6.62 ± 0.29 µM; IC50 (HT-29): 1.12 ± 0.06 µM
COc1cc(/C=C/C(=O)c2ccc(NC(=O)CSc3nc(-c4ccc(Cl)cc4)cc(-c4ccc([N+](=O)[O-])cc4)n3)cc2)cc(OC)c1OC [Compound 9o, (ZE)-2-[4-(4-Chlorophenyl)-6-(4-nitrophenyl)pyrimidin-2-ylthio]-N-{4-[3-(3,4,5-trimethoxyphenyl)acryloyl]phenyl}acetamide] | 12.3 ± 0.72 | 3.62 ± 0.084 | 3.62 ± 0.08 | 268 to 270 | –
COc1ccc(-c2cc(-c3ccc([N+](=O)[O-])cc3)nc(SCC(=O)Nc3ccc(C(=O)/C=C/c4ccc(OC)c(OC)c4)cc3)n2)cc1 [Compound 9e, (ZE)-N-{4-[3-(3,4-Dimethoxyphenyl)acryloyl]phenyl}-2-[4-(4-methoxyphenyl)-6-(4-nitrophenyl)pyrimidin-2-ylthio]-acetamide] | 7.05 ± 0.28 | 18.7 ± 0.92 | 7.31 ± 0.36 | 225 to 227 | –
COc1cc(/C=C/C(=O)c2ccc(NC(=O)CSc3nc(-c4ccc(C)cc4)cc(-c4ccc(Cl)cc4)n3)cc2)cc(OC)c1OC [Compound 9l, (ZE)-2-[4-(4-Chlorophenyl)-6-p-tolylpyrimidin-2-ylthio]-N-{4-[3-(3,4,5-trimethoxyphenyl)acryloyl]phenyl}acetamide] | 42.6 ± 1.99 | 13.5 ± 0.62 | 2.37 ± 0.07 | 234 to 236 | –
COc1ccc(/C=C/C(=O)c2ccc(NC(=O)CSc3nc(-c4ccc(Cl)cc4)cc(-c4ccc(OCCCl)cc4)n3)cc2)cc1OC [Compound 9q] | 5.77 ± 0.16 | 6.81 ± 0.25 | 6.06 ± 0.29 | 210 to 212 | –
COc1ccc(/C=C/C(=O)c2ccc(NC(=O)CSc3nc(-c4ccc(C)cc4)cc(-c4ccc(Cl)cc4)n3)cc2)cc1 [Compound 9j, (ZE)-2-[4-(4-Chlorophenyl)-6-p-tolylpyrimidin-2-ylthio]-N-{4-[3-(4-methoxyphenyl)acryloyl]phenyl}acetamide] | 4.26 ± 0.06 | 6.26 ± 0.24 | 6.26 ± 0.34 | 242 to 244 | –
COc1ccc(-c2cc(-c3ccc(OCCCl)cc3)nc(SCC(=O)Nc3ccc(C(=O)/C=C/c4cc(OC)c(OC)c(OC)c4)cc3)n2)cc1 [Compound 9i, (ZE)-2-{4-[4-(2-Chloroethoxy)phenyl]-6-(4-methoxyphenyl)pyrimidin-2-ylthio}-N-{4-[3-(3,4,5-trimethoxyphenyl)acryloyl]phenyl}acetamide] | 9.71 ± 0.41 | 11.5 ± 0.81 | 11.5 ± 0.23 | 116 to 118 | –
COc1ccc(/C=C/C(=O)c2ccc(NC(=O)CSc3nc(-c4ccc(C)cc4)cc(-c4ccc(Cl)cc4)n3)cc2)cc1OC [Compound 9k, (ZE)-2-[4-(4-Chlorophenyl)-6-p-tolylpyrimidin-2-ylthio]-N-{4-[3-(3,4-dimethoxyphenyl)acryloyl]phenyl}acetamide] | 9.95 ± 0.29 | 28.7 ± 1.39 | 5.61 ± 0.18 | 144 to 146 | –
C#Cc1cccc(Nc2ncnc3cc(OCCOC)c(OCCOC)cc23)c1 [Erlotinib, reference compound] | 9.85 ± 0.51 | 10.6 ± 0.58 | 9.2 ± 0.41 | – | –
COc1ccc(/C=C/C(=O)c2ccc(NC(=O)CSc3nc(-c4ccc(OC)cc4)cc(-c4ccc(OCCCl)cc4)n3)cc2)cc1 [Compound 9g, (ZE)-2-{4-[4-(2-Chloroethoxy)phenyl]-6-(4-methoxyphenyl)pyrimidin-2-ylthio}-N-{4-[3-(4-methoxyphenyl)acryloyl]phenyl}acetamide] | 3.17 ± 0.11 | 10.4 ± 0.64 | 10.6 ± 0.47 | 280 to 282 | –
COc1ccc(/C=C/C(=O)c2ccc(NC(=O)CSc3nc(-c4ccc(Cl)cc4)cc(-c4ccc([N+](=O)[O-])cc4)n3)cc2)cc1 [Compound 9m, (ZE)-2-[4-(4-Chlorophenyl)-6-(4-nitrophenyl)pyrimidin-2-ylthio]-N-{4-[3-(4-methoxyphenyl)acryloyl]phenyl}acetamide] | 3.86 ± 0.14 | 3.9 ± 0.09 | 7.9 ± 0.22 | 190 to 192 | –
